Results: publication PMC9686674, “Potent Anti-Inflammatory Effects of a Helix-to-Helix Peptide against Pseudomonas aeruginosa Endotoxin-Mediated Sepsis” (Antibiotics, 2022)
Ends that are not written are not given here.

What was measured:
[1] = tested on: Escherichia coli, Pseudomonas aeruginosa, Staphylococcus aureus, and Listeria monocytogenes; type: cell-based
Procedure: The antibacterial activity was examined using a microdilution assay with Eschrichia coli (ATCC 25922), P. aeruginosa (ATCC 15692) and Staphylococcus aureus (ATCC 25923), which were obtained from the American Type Culture Collection. Listeria monocytogenes (KCTC 3710) was obtained from the Korean Collection for Type Cultures. Cell survival was investigated using the 3-(4,5-dimethylthiazol-2-yl)-2,5-diphenyltetrazolium bromide assay in RAW264.7 cells. The assay was performed as described previously.

RAW 264.7 cells [2] = assay: Nitric oxide production in LPS-stimulated RAW 264.7 cells (Griess); type: cell-based, murine; settings: RAW 264.7, P. aeruginosa LPS 1 µg/mL, peptides 32 µM, 24 h, Griess reagent
Procedure: (§1) Figure 6 Anti-inflammatory effects of peptides in RAW 264.7 cells. (A) Secreted nitric oxide and tumor necrosis factor-α were measured from the supernatants after 24 h of LPS-stimulation with peptides (32 µM). (B) mRNA expression of RAW 264.7 cells with peptides. IL-6, interleukin-6, TNF- α, tumor necrosis factor-α; GAPDH, Glyceraldehyde 3-phosphate dehydrogenase. 1: control, 2: LPS, 3: LPS+Polymyxin B, 4: LPS+KIW-10, 5: LPS+WIK-10, 6: LPS+RIW-10, 7: LPS+WIR-10, 8: LPS+KIW-14, 9: LPS+WIK-14, 10: LPS+WIKE-14.
The murine macrophage cell RAW 264.7 was grown RPMI-1640 medium supplemented with 10% FBS and then plated at a density of 1 × 10^6 cells/mL in a 24-well microplate. After incubation for 24 h, the cells were stimulated with P. aeruginosa LPS (1 µg/mL), followed by further incubation for 1 h. Peptides were incubated for 24 h. Nitrite was measured by adding 100 µL of cell culture extract to 100 µL of Griess reagent (1% sulfanilamide and 0.1% naphthylenediamine in 5% phosphoric acid). The nitrite concentrations were calculated by comparing the absorbance of sodium nitrite standard solutions. The optical density was evaluated at 550 nm in a microplate reader (Molecular Devices, Emax, CA, USA). TNF-α levels in culture supernatants were analyzed using the R&D system TNF-α EASIA kit, Minneapolis, MN, USA). The developed color was determined by measuring the OD at 490 nm in a microplate reader.

RAW 264.7 cells [3] = assay: Cytokine mRNA (IL-6, TNF-α) in LPS-stimulated RAW 264.7 cells (RT-PCR); type: cell-based, murine; settings: RAW 264.7, LPS 1 μg/mL, 32 μM peptide, 8 h, compared to only LPS-treated cells
Procedure: as §1
RAW 264.7 cells were cultured in RPMI-1640 medium containing 10% FBS, and then seeded to 5 × 10^6 cells/mL in a 6-well plate and cultured at 37 °C, 5% CO2 incubator for 24 h. Each well was treated with 1 μg/mL of LPS; after 1 h, 32 μM of each peptide was added and incubated for 8 h. Cells were collected, and total RNA was isolated using TRIzol reagent (Thermo Fisher Scientific, Waltham, MA, USA). 5′-[…]-3′ and 5′-[…]-3′ as Glyceraldehyde 3-phosphate dehydrogenase primers, 5′-[…]-3′ and 5′-[…]-3′ as IL-6 primers, and 5′-[…]-3′ and 5′-[…]-3′ as TNF-α primers were used for reverse transcription-polymerase chain reaction (RT-PCR). The PCR products generated using the Maxime RT-PCR premix kit (IntronBio, Seongnam, Gyeonggi-do, Republic of Korea) were confirmed using electrophoresis.

RAW 264.7 cells [4] = assay: LPS-stimulated ROS generation (H2DCFDA fluorescence microscopy); type: cell-based, murine; settings: RAW 264.7, peptides 8 µM pre-incubated 30 min, P. aeruginosa LPS 100 ng/mL, 24 h
Procedure: Figure 3 CD spectra of peptides in LPS and effects of peptides on reactive oxygen species (ROS) production. (A) Secondary structures of WIK-10, WIR-10, WIK-14, and WIKE-14 peptides (50 µM) in 1 µg/mL Pseudomonas aeruginosa LPS. (B) RAW 264.7 cells were pre-incubated in the absence or presence of peptides (8 µM) for 30 min and treated with or without LPS (100 ng/mL). After 24 h incubation, the cells were treated using H2DCFDA and incubated for […], following which the fluorescent cells were observed under a fluorescence microscope.
RAW 264.7 cells (1 × 10^6 cells/mL) plated in a 24-well plate were pre-cultured for 24 h. Peptides in RPMI-1640 medium were then pretreated to cells for 30 min and P. aeruginosa LPS (100 ng/mL) was added, followed by additional incubation for 24 h. Control cells are not treated with peptides and LPS. H2DCFDA (10 µL, final concentration 10 µM) was treated to the cells, followed by incubation for 30 min in a CO2 incubator. The cells washed with cold-PBS buffer were then observed using a fluorescence microscope (OPTINIT KCS3-160S; Korea Lab Tech, Seongnam, Gyeonggi-do, Republic of Korea).

[5] = tested on: binding between LPS and RAW 264.7 cells; assay: Inhibition of FITC-LPS binding to RAW 264.7 cells (fluorescence microscopy and flow cytometry); type: cell-based, murine; settings: FITC-LPS 1 µg/mL, fluorescence microscopy, dose-dependent
Procedure: Figure 4 Inhibitory effects of peptides on binding between LPS and RAW 264.7 cells. Fluorescein isothiocyanate-labeled LPS and peptides were incubated for 12 h with RAW 264.7 cells, and cells were washed with PBS, followed by observation using fluorescence microscopy.
RAW 264.7 cells cultured in Roswell Park Memorial Institute Medium (RPMI)-1640 containing 10% fetal bovine serum (FBS) were aliquoted to 1 × 10^6 cells/mL in a 24-well plate, and cultured at 37 °C, 5% CO2 incubator for 24 h. Each well was treated with 1 µg/mL of FITC-attached LPS. After 1 h, peptides were added to the wells at the indicated concentrations. After incubation for 8 h, the cells were washed with cold-PBS, observed under a fluorescence microscope, and measured using flow cytometry (Beckman Coulter CytoFlex, Brea, CA, USA).

Balb/c mice lungs = assay: LPS-induced acute lung injury (ALI) in mice; type: in vivo; settings: 1 mg/kg intratracheal, 3 days, histology
Procedure: Figure 8 In vivo anti-inflammatory effects of peptides in acute lung injury. Pseudomonas aeruginosa LPS (500 ng) was intratracheally instilled in mice lungs. One hour after instillation, peptides were intratracheally administered, followed by monitoring for 3 days. Lungs collected from the euthanized mice were digitally visualized and tissues were stained using eosin/alcian blue, H&E, PE-conjugated TNF-α, and IL6 antibody. Bar is 50 µm.
P. aeruginosa LPS (500 ng) in 50 µL PBS was intratracheally instilled into seven-week-old female Balb/c mice. One hour after exposure, each peptide was intratracheally administered at the indicated dose in 50 µL PBS. Control mice were injected with 50 µL PBS without the peptides. Mice were monitored for signs of morbidity for 3 days after LPS exposure. Mice were euthanized using CO2 inhalation, and the lung tissues were excised and fixed in 4% paraformaldehyde. The fixed tissues were dehydrated using a series of ethanol solutions (50−100%) and embedded in paraffin. The tissues embedded with paraffin were sectioned with a thickness of 5 µm (Leica microtome, Deerfield, MA, USA). Histopathology of the lung tissues was performed using alcian blue and eosin and H&E staining. […] The stained tissue sections were observed under a fluorescence microscope (OPTINIT KCS3-160S; Korea Lab Tech, Seongnam, Gyeonggi-do, Republic of Korea).

Substance | GM, geometric mean of minimum inhibitory concentration values [1] | further results
KKIWKKWIKI-NH2 [KWI-10] | 10.5 ± 1.2 µM | 
WIRRIWRRIR-NH2 [WIR-10] | 3 ± 0.2 µM | 
KKIIKKIIKKIWKW-NH2 [KIW-14] | 2.6 ± 1.2 µM | 
RRIWRRWIRI-NH2 [RWI-10] | 7 ± 1.2 µM | 
KKIWKKWIKKIIKI-NH2 [KWI-14] | 2.6 ± 0.8 µM | 
WIKKIWKKIK-NH2 [WIK-10] | 6.5 ± 0.8 µM | 
RRIIRRIWRW-NH2 [RIW-10] | 8.5 ± 0.8 µM | 
polymyxin B |  | LPS-induced NO secretion (RAW 264.7 cells [2]): inhibited; expression levels of IL-6 and TNF-α (mRNA) (RAW 264.7 cells [3]): clearly decreased; ROS-producing level of LPS-treated cells (RAW 264.7 cells [4]): significantly reduced; FITC fluorescence signals in RAW 264.7 cells (FITC-LPS binding) [5]: dramatically decreased
WIKKIWKKIIKEIK-NH2 [WIKE-14] | 8 ± 0.8 µM | toxicity in lung tissue cells, peptide alone (Balb/c mice lungs): non-toxic
WIKKIWKKIIKKIK-NH2 [WIK-14] | 2.1 ± 0.4 µM | toxicity in lung tissue cells, peptide alone (Balb/c mice lungs): toxic
melittin |  | ROS-producing level of LPS-treated cells (RAW 264.7 cells [4]): significantly reduced
KKIIKKIWKW-NH2 [KIW-10] | 11 ± 1 µM | 
